# From a melting point compilation (Tetko et al.; mined from patent text by program, amines drawn as free bases though some values may be those of a salt)
row,Compound,melting point [°C]
1,CCOC(=O)c1cccc(C(=O)O)c1,131 to 132
2,COc1ccc(CSc2cc(C(=O)Nc3ccc(C#N)cc3)ccn2)cc1,201 to 203
3,COc1ccccc1-c1nc(C)c(C(N)=O)s1,191 to 192
4,COc1ccc(CC(C)=O)cc1S(=O)(=O)N1CCSCC1,118 to 122
5,CN1CC(CCO)N2c3ccccc3Oc3ccccc3C2C1 (stereo not drawn),138 to 139
6,NCCCCCCCCCCN1CCN(CC(=O)N2c3ccccc3C(=O)Nc3cccnc32)CC1,95 to 97
7,COC(=O)Cc1csc2cc(-c3ccccc3)c(C=O)n12,118 to 120
8,Cn1cnc(Cc2cccc(CO)c2O)c1,139 to 144
9,O=C(N=C1SCCN1Cc1ccc(Cl)nc1)c1ccccc1,133
10,CSC(=S)OCc1cn(-c2ccc(N3CCOCC3)c(F)c2)nn1,118
11,COC(=O)c1c(Cl)cc(Cl)cc1NC(=O)CSc1ccccc1C,93 to 94
12,O=C(O)[C@@H]1O[C@@H](c2ccccc2)N(NS(=O)(=O)c2ccc([N+](=O)[O-])cc2)[C@H]1c1ccccc1,61 to 65
13,Cc1nc2cc(Br)ccc2c(=O)n1C1CCC(=O)NC1=O (stereo not drawn),315 to 317
14,CCCCCC(=O)OCC(=O)C1C(C)CC2C3=C(C(=O)CC21C)C1(C)C=CC(=O)C=C1C(F)C3 (stereo not drawn),159
15,CCOC(=O)C1(Cl)Oc2c(cc(C(=O)c3ccccc3F)c(OC)c2C)C1Cl (stereo not drawn),102
16,Cc1nc2c(s1)CN=C(c1ccccc1F)c1cc(Cl)ccc1-2,147 to 149
17,Nc1nc(-c2ccccc2)c(-c2ccnc(Nc3cccc(I)c3)n2)s1,243 to 244
18,Cc1oc(-c2ccccc2)nc1CCc1ccc(/C=C/C=C/CO)cc1,117 to 118
19,CCOC(=O)CCCCCBr,34.5 to 36
20,CCOC(=O)c1cc2c(CC)nc(CC)cc2n(Cc2ccc(-c3ccccc3-c3nnn(C(c4ccccc4)(c4ccccc4)c4ccccc4)n3)cc2)c1=O,110 to 112
21,O=C(O)/C=C/C(=O)/C=C/c1ccc(C(F)(F)F)cc1,192 to 195
22,COc1cc(CCN2CCN(c3nsc4ccccc34)CC2)c(NC(=O)Nc2ccccc2C)cc1OC,200
23,Cc1cccc(-c2n[nH]cc2-c2ccc(F)c(-c3cnn(CCN4CCOCC4)c3)c2)n1,124
24,CCOCN(c1ccccc1CN1CCC(c2ccccc2)OC1=O)S(=O)(=O)C(F)(F)F (stereo not drawn),116
25,Cc1c(C)c(N2CCN(c3nccs3)CC2)c(C)c2c1OC(C)(C)C2,150 to 151

row,Compound,melting point [°C]
1,CCNC(=O)N1C(=O)C2(CCCCC2)NC12CCCCC2,185 to 188
2,CN1Cc2c(-c3nc(CCl)cs3)ncn2-c2cccc(Cl)c2C1=O,277 to 279
3,Cc1sc2cc(CC(=O)O)ccc2c1Br,150 to 152
4,O=C(CC1=NCCN1)N1CCOc2ccc(S(=O)(=O)c3ccccc3)cc21,114 to 116
5,O=C(O)CCCOc1ccc(OCCC(c2ccccc2)(c2ccccc2)c2ccccc2)cc1,138 to 139
6,CCCNC(=O)c1cc2cc(OCCNC[C@H](O)COc3ccccc3)ccc2o1,127 to 128
7,COc1cc(F)c(-c2cncc(OC3SCC(OC(C)=O)C(OC(C)=O)C3OC(C)=O)c2)c(F)c1 (stereo not drawn),62
8,CC(=O)c1cccc(C)c1NC(=O)CBr,97 to 100
9,O=C(Nc1ccc2[nH]c(=O)[nH]c2c1)C(=O)N1CCC(Cc2ccc(F)cc2)CC1,> 260
10,CCOC(OCC)c1[nH]c(C2CC2)nc(=O)c1Cl,109 to 111
11,CCOc1ccc2c(c1)n(C1CCOCC1)c(=O)n2Cc1ccc(C(=O)NC(C)(C)C)cc1OC,209
12,CCOC(=O)C1CCCCN1C(=O)Cl (stereo not drawn),121 to 123
13,CN[C@@H](CSC(c1ccccc1)(c1ccccc1)c1ccccc1)C(=O)O,114
14,COc1nc2ccc(Br)cc2cc1C(c1ccccc1)n1cccn1 (stereo not drawn),142 to 144
15,CC(C)n1nc(-c2nc(C(=O)O)c(N)nc2-c2ccccc2)ccc1=O,233 to 235
16,Cc1ccccc1C(=O)Nc1ccc(C(=O)N2Cc3cc(Cl)ccc3Oc3ccccc32)cc1,207 to 208
17,Fc1ccc(NCc2ccc(NCc3ccccc3)nc2)nc1,166 to 168
18,CS(=O)(=O)Nc1ccc(C2CCN(c3ccncc3)CC2)cc1,269 to 271
19,CC(C)C[C@H](NC1CCCCC1)C(=O)N1CCN(C(c2ccc(F)cc2)c2ccc(F)cc2)CC1,45 to 54
20,C[C@@H](NC(=O)c1ccc(-c2ccccn2)s1)[C@](O)(Cn1cncn1)c1ccc(F)cc1F,212 to 213
21,O=C1CCCc2nc3ccccc3c(NCc3ccccc3)c21,162 to 163
22,COC(=O)Nc1nc2ccc(Oc3ccncc3)cc2[nH]1,220 to 224
23,CCOC(=O)NOC(=O)c1ccc(C(=O)ONC(=O)OCC)cc1,130
24,CCCCc1ncc(/C=C(\Cc2cccs2)C(=O)O)n1Cc1ccc(C(=O)O)cc1[N+](=O)[O-],163
25,C=CCCCCCCCCC(O)CNC(=O)N(C)O (stereo not drawn),105 to 106

row,Compound,melting point [°C]
1,COC(=O)C=C(c1ccccc1)c1ccc2nc(N)n(S(=O)(=O)C(C)C)c2c1,160 to 165
2,O=C(O)c1csc2ccc(O)cc12,262 to 263
3,Cc1cccc(C)c1C=Nc1cc(Cl)c(N=CN(C)C)c(Cl)c1,123 to 124
4,COCC(OC(C)=O)C1CC(OC(C)=O)C2(C)CCC3C(CCC4CC(=O)CC(C)C43C)C12 (stereo not drawn),149 to 150
5,Nc1ncc(-c2ccc3ncc(-c4ccc(CN5CCC(C(=O)N6CCCCC6)CC5)cc4)n3n2)cc1C(F)(F)F,263 to 266
6,CCN(CCCc1coc2c(OC)cccc12)C1COc2c(F)ccc(C(N)=O)c2C1 (stereo not drawn),125 to 128
7,Cc1cccc2ncn(C(C)C(O)(Cn3cncn3)c3ccc(F)cc3F)c(=O)c12 (stereo not drawn),87 to 89
8,CCOC(=O)C(Oc1nc(OC)cc(OC)n1)C(C)(C)c1ccccc1 (stereo not drawn),123 to 124
9,CS(=O)(=O)c1ccc(Oc2ccc(SC(F)(F)F)cc2)nc1,134 to 135
10,O=c1[nH]c2cc(C(F)(F)F)ccc2n1CCCN1CCN(C(c2ccccc2)c2ccccc2)CC1,153
11,CC(=O)SCCC(=O)[C@@H]1CCCC[C@H]1C(=O)O (relative stereo),65 to 68
12,CN(C)N=Nc1c[nH]c(=O)[nH]c1=O,166 to 167
13,CS(=O)(=O)Nc1cc(NC(=O)CN2C(=O)c3ccccc3C2=O)ccc1Oc1ccccc1,208 to 209
14,CC(=O)c1cc(Oc2ncccc2C(=O)NC[C@H]2CC[C@H](C(C)(C)O)CC2)ccc1Cl,106 to 108
15,O=C(N[C@H](Cc1ccc(C(F)(F)F)cc1)[C@H](O)c1ccc(F)cc1)c1ccc(C(F)(F)F)cc1 (racemic),162 to 163
16,O=c1[nH]nc2ccc(S)nn12,> 300
17,CC(CS)C(=O)N(CC(=O)O)C1CCCCC1 (stereo not drawn),158 to 160
18,CC(O)Cn1c(COCc2ccccc2)nc(C(C)C)c1Sc1cc(Cl)cc(Cl)c1 (stereo not drawn),155 to 157
19,COc1ccc(S(=O)(=O)N2c3ccccc3-c3ccccc3C2c2ccccc2)cc1 (stereo not drawn),145 to 147
20,NC(=O)CCCN(CCCC1CCCCC1)C(=O)Nc1ccccc1,104 to 106
21,COCCNS(=O)(=O)c1cccc(Nc2nccc(-c3sc(N)nc3C)n2)c1,179 to 180
22,Cc1ccc(OC(=O)c2cc3cc(S(=O)(=O)N(C)C)c(Cl)c(Cl)c3o2)cc1,176 to 177
23,CCCCc1c(C(C)C)nc(C(C)C)c(C(C)O)c1-c1ccc(F)cc1 (stereo not drawn),103 to 104
24,O=C(O)CC(=O)Nc1ccccc1CCNC(=O)/C(=C/c1c[nH]c2ccccc12)NC(=O)OC1C2CC3CC(C2)CC1C3 (stereo not drawn),112 to 120
25,C=C(C)OC(=O)N1c2ccncc2NC(=O)C1C (racemic),170 to 171

row,Compound,melting point [°C]
1,CCCn1nc2c(N)nc3c(c2c1CCCc1cc(-c2ccccc2)no1)CCCC3,154 to 155
2,CCOC(=O)c1csc(NC(c2ccccc2)(c2ccccc2)c2ccccc2)n1,140 to 141
3,CCOC(=O)C1=C(C)NC(C=O)=C(C(=O)OCC)C1c1ccco1 (stereo not drawn),78 to 79.5
4,Cc1ccc(N2CN(Cc3ccccc3)C3=NN=CC3=C2N)cc1,195 to 196
5,CCCCCCCCOc1ccc(-c2ccc(OCCCCCCCC)c(F)c2)cc1F,84
6,Cc1cc(-c2ccc(Cl)cc2)nc2c(C(=O)Nc3cccc(S(C)(=O)=O)c3)cnn12,250 to 251
7,COc1ccc(C(=O)Nc2ccccc2)c(C(=O)Cc2ccccn2)c1,145 to 148
8,COc1ccccc1-c1ccc2cnc(Nc3ccc4c(c3)N3CCC4CC3)nn12,89 to 95
9,CCOCc1cc(N)ccc1N1C(=O)c2ccc(Cl)cc2C1=O,154 to 156
10,CCCC12CCC(=O)C=C1c1c(cc(OC)c(Cl)c1Cl)C2O (stereo not drawn),173 to 175
11,CCCC(=O)Nc1cccc2c1C(=O)c1c-2n[nH]c1-c1ccc(OC)cc1,282
12,COc1cc2ncnc(Nc3cc(Cl)cc(N=[N+]=[N-])c3)c2cc1OC,205 to 206
13,CCc1nc2nc(C)nn2c(O)c1CCC(C)CC(C)(C)C (stereo not drawn),183 to 185
14,CCn1c(=O)c(C(N)=O)c(N)c2ccc(C)nc21,263 to 266
15,OC[C@@H]1CNCc2cc3ccc(C(F)(F)F)cc3n21,126 to 127
16,C=C(C)c1cc(NC(=O)N2CCN(c3cc(C)cc(C)c3)CC2)c(OC)nc1C,140 to 142
17,CC(C)(C)C(=O)Nc1nc(O)c2c(n1)NCC(CCC1CCC(C(=O)O)CC1)C2 (stereo not drawn),218 to 234
18,Cc1ccc2nc(C)c(C(=O)NNC(=O)CCl)n2c1,290 to 291
19,CCS(=O)c1nc2ccc([N+](=O)[O-])cc2s1 (stereo not drawn),145 to 149
20,O=C(CCCC(=O)C(F)(F)F)c1cccc(OCc2ccccc2)c1,75.3 to 80.3
21,N#CSCCNc1ccc(Cl)cc1[N+](=O)[O-],154 to 155
22,CC(Cc1cccc2ccccc12)(Cc1cccc2ccccc12)C(=O)NC(C)(Cc1c[nH]c2ccccc12)C(=O)O (stereo not drawn),195 to 197
23,CC(C)C(O)(c1ccccc1)c1cc(Cl)ccc1O (stereo not drawn),114
